Test system: ApoB secretion, HepG2 cells
Experiment: Quantification of the secretion of ApoB (HepG2 cells, immunoprecipitation, scintillation counting)
Type: cell-based
Settings: Homo sapiens, HepG2, 24 h, 24 hours of incubation
Procedure: C.1. Quantification of the Secretion of ApoB
HepG2 cells were cultured in 24-well plates in Minimal Essential Medium Rega 3 containing 10% fetal calf serum. Rega 3 has the following composition: CaCl2 (264 μg/ml), KCl (400 μg/ml), MgSO4.7H2O (200 μg/ml), NaCl (6800 μg/ml), NaHCO3 (850 μg/ml), NaH2PO4.H2O (158 μg/ml), D-glucose (1000 μg/ml), phenol red (10 μg/ml), L-alanine (8.9 μg/ml), L-arginine HCl (12 μg/ml), L-asparagine.H2O (15 μg/ml), L-aspartic acid (13.3 μg/ml), L-cystine (24 μg/ml), L-glutamic acid (14.7 μg/ml), glycine (7.5 μg/ml), L-histidine.HCl .H2O (42 μg/ml), L-isoleucine (52 μg/ml), L-leucine (52 μg/ml), L-lysine.HCl (72.5 μg/ml), L-methionine (15 μg/ml), L-phenylalanine (32 μg/ml), L-proline (11.5 μg/ml), L-serine (10.5 μg/ml), L-threonine (48 μg/ml), L-tryptophan (10 μg/ml), L-tyrosine (36 μg/ml), L-valine (46 μg/ml), D-Ca pantothenate (1 μg/ml), choline chloride (1 μg/ml), folic acid (1 μg/ml), 1-enositol (2 μg/ml), nicotinamide (1 μg/ml), pyridoxal HCl (1 μg/ml), riboflavin (0.1 μg/ml) and thiamine HCl (1 μg/ml).
At 70% confluency, the medium was changed and the test compound or carrier (dimethylsulfoxide, 0.4% final concentration) was added. After 24 hours of incubation, the medium was transferred to Eppendorf tubes and cleared by centrifugation. A sheep antibody directed against either apo B was added to the supernatant and the mixture was kept at 8° C. for 24 hours. Then, rabbit anti-sheep antibody was added and the immune complex was allowed to precipitate for 24 hours at 8° C. The immunoprecipitate was pelleted by centrifugation for 25 minutes at 1320 g and washed twice with a buffer containing 40 mM 4-morpholinepropanesulfonic acid, 40 mM NaH2PO4, 100 mM NaF, 0.2 mM dithiothreitol, 5 mM ethylenediamine tetraacetic acid, 5 mM ethylenebis (oxyethylenenitrilo) tetraacetic acid, 1% Triton-X-100, 0.5% sodium deoxycholate, 0.1% sodium dodecylsulphate, 0.2 μM leupeptin and 0.2 μM phenylmethylsulphonylfluoride. Radioactivity in the pellet was quantified by liquid scintillation counting.
Resulting IC50 values are enumerated in Table C.1 for a number of compounds No. 1 to No. 123.

| Compound | IC50 |
| --- | --- |
| CCOC(=O)C(c1ccccc1)N1CCCN(c2ccc(NC(=O)c3ccccc3-c3ccc(C(F)(F)F)cc3)cc2)CC1 (centres unmarked) [Co. No. 120] | 357 nM |
| CCCOC(=O)C(c1ccccc1)N1CCCN(c2ccc(NC(=O)c3ccccc3-c3ccc(C(F)(F)F)cc3)cc2)CC1 (centres unmarked) [Co. No. 121] | 2110 nM |
| CCNC(=O)C(c1ccccc1)N1CCCN(c2ccc(NC(=O)c3ccccc3-c3ccc(C(F)(F)F)cc3)cc2)CC1 (centres unmarked) [Co. No. 122] | 414 nM |
| CCCNC(=O)C(c1ccccc1)N1CCCN(c2ccc(NC(=O)c3ccccc3-c3ccc(C(F)(F)F)cc3)cc2)CC1 (centres unmarked) [Co. No. 123] | 241 nM |
| O=C(Nc1ccc(N2CCC(C(C(=O)Nc3ccccc3)c3ccccc3)CC2)cc1)c1cccc2c1-c1ccccc1C2 (centres unmarked) [Co. No. 129] | 2770 nM |
| CCCNC(=O)C(c1ccccc1)C1CCN(c2ccc(NC(=O)c3ccccc3-c3ccccc3C(F)(F)F)cc2)CC1 (centres unmarked) [Co. No. 130] | 360 nM |
| CCCNC(=O)C(c1ccccc1)C1CCN(c2ccc(NC(=O)c3ccccc3-c3ccccc3C)cc2)CC1 (centres unmarked) [Co. No. 131] | 417 nM |
| CCCNC(=O)C(c1ccccc1)C1CCN(c2ccc(NC(=O)c3ccccc3-c3ccc(C(C)(C)C)cc3)cc2)CC1 (centres unmarked) [Co. No. 132] | 50.2 nM |
| CCCNC(=O)C(c1ccccc1)C1CCN(c2ccc(NC(=O)c3ccccc3-c3cccc(N)c3)cc2)CC1 (centres unmarked) [Co. No. 133] | > 3000 nM |
| CCNC(=O)C(c1ccccc1)C1CCN(c2ccc(NC(=O)c3ccccc3-c3cccc4ccccc34)cc2)CC1 (centres unmarked) [Co. No. 134] | 65.3 nM |
| CCNC(=O)C(c1ccccc1)C1CCN(c2ccc(NC(=O)c3ccccc3-c3ccccc3OC)cc2)CC1 (centres unmarked) [Co. No. 135] | 149 nM |
| O=C(Nc1ccc(N2CCC(C(C(=O)NCc3ccccc3)c3ccccc3)CC2)cc1)c1ccccc1-c1cccc2ccccc12 (centres unmarked) [Co. No. 136] | 148 nM |
| O=C(Nc1ccc(N2CCC(C(C(=O)Nc3ccccc3)c3ccccc3)CC2)cc1)c1ccccc1-c1cccc2ccccc12 (centres unmarked) [Co. No. 137] | 1770 nM |
| O=C(Nc1ccc(N2CCC(C(C(=O)Nc3ccccc3)c3ccccc3)CC2)cc1)c1ccccc1-c1ccc2ccccc2c1 (centres unmarked) [Co. No. 138] | 99.3 nM |
| CCNC(=O)C(c1ccccc1)N1CCN(c2ccc(NC(=O)c3ccccc3-c3ccccc3)cc2)CC1 (centres unmarked) [Co. No. 139] | 86.1 nM |
| O=C(Nc1ccc(N2CCN(C(C(=O)Nc3ccccc3)c3ccccc3)CC2)cc1)c1ccccc1-c1ccc(C(F)(F)F)cc1 (centres unmarked) [Co. No. 140] | 20.3 nM |
| O=C(Nc1ccc(N2CCN(C(C(=O)NCc3ccccc3)c3ccccc3)CC2)cc1)c1ccccc1-c1ccccc1 (centres unmarked) [Co. No. 141] | 25.1 nM |
| O=C(Nc1ccc(N2CCN(C(C(=O)OCc3ccccc3)c3ccccc3)CC2)cc1)c1ccccc1-c1ccc(C(F)(F)F)cc1 (centres unmarked) [Co. No. 142] | 114 nM |
| COC(=O)C(c1ccccc1)N1CCC(c2ccc(NC(=O)c3ccccc3-c3ccccc3)cc2)CC1 (centres unmarked) [Co. No. 143] | 234 nM |

| Compound | IC50 |
| --- | --- |
| C=CCOC(=O)C(c1ccccc1)N1CCN(c2ccc(NC(=O)c3ccccc3-c3ccc(C(F)(F)F)cc3)cc2)CC1 (centres unmarked) [Co. No. 144] | 202 nM |
| O=C(Nc1ccc(N2CCN(C(C(=O)Nc3ccccc3)c3ccccc3)CC2)cc1)c1ccccc1-c1ccccc1 (centres unmarked) [Co. No. 145] | 185 nM |
| C=CCOC(=O)C(c1ccccc1)N1CCN(c2ccc(NC(=O)c3ccccc3-c3ccccc3)cc2)CC1 (centres unmarked) [Co. No. 146] | 341 nM |
| O=C(Nc1ccc(N2CCN(C(C(=O)OCc3ccccc3)c3ccccc3)CC2)cc1)c1ccccc1-c1ccccc1 (centres unmarked) [Co. No. 147] | 287 nM |
| C=CCNC(=O)C(c1ccccc1)N1CCN(c2ccc(NC(=O)c3ccccc3-c3ccccc3)cc2)CC1 (centres unmarked) [Co. No. 148] | 60.4 nM |
| CCNC(=O)C(c1ccccc1)N1CCC(c2ccc(NC(=O)c3ccccc3-c3ccccc3)cc2)CC1 (centres unmarked) [Co. No. 149] | 41.7 nM |
| O=C(Nc1ccc(N2CCN(C(C(=O)Oc3ccccc3)c3ccccc3)CC2)cc1)c1ccccc1-c1ccccc1 (centres unmarked) [Co. No. 150] | 173 nM |
| O=C(Nc1ccc(C2CCN(C(C(=O)OCc3ccccc3)c3ccccc3)CC2)cc1)c1ccccc1-c1ccc(C(F)(F)F)cc1 (centres unmarked) [Co. No. 151] | 612 nM |
| C=CCOC(=O)C(c1ccccc1)N1CCC(c2ccc(NC(=O)c3ccccc3-c3ccc(C(F)(F)F)cc3)cc2)CC1 (centres unmarked) [Co. No. 152] | 94.4 nM |
| O=C(Nc1ccc(C2CCN(C(C(=O)OCc3ccccc3)c3ccccc3)CC2)cc1)c1ccccc1-c1ccccc1 (centres unmarked) [Co. No. 153] | 1550 nM |
| C=CCOC(=O)C(c1ccccc1)N1CCC(c2ccc(NC(=O)c3ccccc3-c3ccccc3)cc2)CC1 (centres unmarked) [Co. No. 154] | 2320 nM |
| COC(=O)C(c1ccccc1)N1CC=C(c2ccc(NC(=O)c3ccccc3-c3ccccc3)cc2)CC1 (centres unmarked) [Co. No. 156] | 122 nM |
| COC(=O)C(c1ccccc1)C1CCN(c2ccc(NC(=O)c3ccccc3-c3ccccc3)cc2)CC1 (centres unmarked) [Co. No. 157] | 107 nM |
| O=C(Nc1ccc(N2CCN(C(C(=O)Oc3ccccc3)c3ccccc3)CC2)cc1)c1ccccc1-c1ccc(C(F)(F)F)cc1 (centres unmarked) [Co. No. 158] | 21.3 nM |
| COC(=O)C(c1ccccc1)N1CCN(c2ccc(NC(=O)c3ccccc3-c3ccc(Cl)cc3)cc2)CC1 (centres unmarked) [Co. No. 159] | 106 nM |
| CCNC(=O)C(c1ccccc1)N1CCN(c2ccc(NC(=O)c3ccccc3-c3ccc(Cl)cc3)cc2)CC1 (centres unmarked) [Co. No. 160] | 32.4 nM |
| O=C(Nc1ccc(C2CCN(C(C(=O)NCc3ccccc3)c3ccccc3)CC2)cc1)c1ccccc1-c1ccccc1 (centres unmarked) [Co. No. 161] | 68.9 nM |
| O=C(Nc1ccc(C2CCN(C(C(=O)Nc3ccccc3)c3ccccc3)CC2)cc1)c1ccccc1-c1ccccc1 (centres unmarked) [Co. No. 162] | 96.6 nM |
| C=CCNC(=O)C(c1ccccc1)N1CCC(c2ccc(NC(=O)c3ccccc3-c3ccccc3)cc2)CC1 (centres unmarked) [Co. No. 163] | 250 nM |

| Compound | IC50 |
| --- | --- |
| O=C(Nc1ccc(C2=CCN(C(C(=O)Nc3ccccc3)c3ccccc3)CC2)cc1)c1ccccc1-c1ccc(C(F)(F)F)cc1 (centres unmarked) [Co. No. 164] | 100 nM |
| C=CCNC(=O)C(c1ccccc1)N1CC=C(c2ccc(NC(=O)c3ccccc3-c3ccc(C(F)(F)F)cc3)cc2)CC1 (centres unmarked) [Co. No. 165] | 33 nM |
| O=C(Nc1ccc(C2=CCN(C(C(=O)NCc3ccccc3)c3ccccc3)CC2)cc1)c1ccccc1-c1ccccc1 (centres unmarked) [Co. No. 166] | 36 nM |
| C=CCNC(=O)C(c1ccccc1)N1CC=C(c2ccc(NC(=O)c3ccccc3-c3ccccc3)cc2)CC1 (centres unmarked) [Co. No. 167] | < 30 nM |
| O=C(Nc1ccc(C2=CCN(C(C(=O)OCc3ccccc3)c3ccccc3)CC2)cc1)c1ccccc1-c1ccc(C(F)(F)F)cc1 (centres unmarked) [Co. No. 168] | 132 nM |
| O=C(Nc1ccc(N2CCC(C(C(=O)OCc3ccccc3)c3ccccc3)CC2)cc1)c1ccccc1-c1ccc(C(F)(F)F)cc1 (centres unmarked) [Co. No. 174] | 92.3 nM |
| O=C(Nc1ccc(N2CCC(C(C(=O)Oc3ccccc3)c3ccccc3)CC2)cc1)c1ccccc1-c1ccc(C(F)(F)F)cc1 (centres unmarked) [Co. No. 175] | < 30 nM |
| C=CCOC(=O)C(c1ccccc1)C1CCN(c2ccc(NC(=O)c3ccccc3-c3ccc(C(F)(F)F)cc3)cc2)CC1 (centres unmarked) [Co. No. 176] | 134 nM |
| O=C(Nc1ccc(N2CCC(C(C(=O)OCc3ccccc3)c3ccccc3)CC2)cc1)c1ccccc1-c1ccccc1 (centres unmarked) [Co. No. 177] | 261 nM |
| O=C(Nc1ccc(N2CCC(C(C(=O)Oc3ccccc3)c3ccccc3)CC2)cc1)c1ccccc1-c1ccccc1 (centres unmarked) [Co. No. 178] | 34.3 nM |
| C=CCOC(=O)C(c1ccccc1)C1CCN(c2ccc(NC(=O)c3ccccc3-c3ccccc3)cc2)CC1 (centres unmarked) [Co. No. 179] | 403 nM |
| CCNC(=O)C(c1ccccc1)C1CCN(c2ccc(NC(=O)c3ccccc3-c3ccccc3)cc2)CC1 (centres unmarked) [Co. No. 180] | 114 nM |
| CCNC(=O)C(c1ccccc1)C1CCN(c2ccc(NC(=O)c3ccccc3-c3ccc(C(F)(F)F)cc3)cc2)CC1 (centres unmarked) [Co. No. 181] | 3.31 nM |
| CCNC(=O)C(c1ccccc1)N1CCN(c2ccc(N(C)C(=O)c3ccccc3-c3ccc(C(F)(F)F)cc3)cc2)CC1 (centres unmarked) [Co. No. 182] | 7.62 nM |
| COC(=O)C(c1ccccc1)N1CCN(c2ccc(N(C)C(=O)c3ccccc3-c3ccc(C(F)(F)F)cc3)cc2)CC1 (centres unmarked) [Co. No. 183] | 21.6 nM |
| COC(=O)C(c1ccccc1)N1CCN(c2ccc(NC(=O)c3ccc(C)cc3-c3ccc(C(F)(F)F)cc3)cc2)CC1 (centres unmarked) [Co. No. 184] | 3.13 nM |
| COC(=O)C(c1ccccc1)N1CCN(c2ccc(NC(=O)c3ccc(F)cc3-c3ccc(C(F)(F)F)cc3)cc2)CC1 (centres unmarked) [Co. No. 185] | 48.8 nM |
| COC(=O)C(c1ccccc1)N1CCN(c2ccc(NC(=O)c3cc(OC)ccc3-c3ccc(C(F)(F)F)cc3)cc2)CC1 (centres unmarked) [Co. No. 186] | 200 nM |
